Target: T1, CaM (Bos taurus, UniProt P62157)
T1 construct: made in house; host or cells: E. coli BL21 (DE3)
Assay: Pull-down assay with immobilized protein and LSM libraries
Type: binding, bovine
Conditions: H12 library; 1:2 stoichiometry assumed; read-out: Surface mapping KD (apparent)
Method: Pull-down assays with immobilized test proteins and foldameric LSM libraries were carried out. Proteins were equilibrated with LSM probes, and equilibrium bound fractions (FB) were determined from the unbound fractions measured by HPLC-MS methods. Hits were corrected with background binding of the resin. The protocol allowed all binding events to equilibrate irrespective of affinity, specificity, and binding kinetics. This was essential to judge overall druggability and promiscuity. Importantly, the concentration of protein and the total concentration of foldameric LSMs were equimolar, which minimized competition between the probes. This experimental setup approximated independent binding of individual library members. Results were visualized as heat maps of dissociation constants (Fig. 3).
Pull-down assay and data analysis
Pull-down assay. LSM sublibraries were screened separately as previously described.(2) Experiments were performed in the following buffers: (i) 20 mM pH 7.4 HEPES, 150 mM NaCl, 5 mM CaCl2 for CaM; (ii) 50 mM pH 7.4 HEPES, 150 mM NaCl, 1 mM TCEP, 1 mM CaCl2 for S100 proteins; (iii) 20 mM pH 7.4 HEPES, 150 mM NaCl, 1 mM TCEP for Gal-1 and (iv) 20 mM pH 7.4 HEPES, 150 mM NaCl for RecQ-WH. Assays were performed in paper filter spin cups (Thermo Scientific) with sample volumes of 100 µl. Hexahistidine-tagged proteins were immobilized on previously washed Co-NTA resin (TALON, Takara Bio USA, Inc., […]
LSM sublibrary was added, in which each of the 64 library members were used at a concentration of 1 µM. Samples were incubated at room temperature for 30 min with shaking at 100 rpm. Then, samples were centrifuged at 1000 rpm for 2 min and washed with 100 µl pull-down buffer to remove unbound compounds.
The control experiments were performed using the same compounds and the resin but without the immobilized protein. In case of competitive assays, competitor peptides were added to LSM sublibrary samples in 200 µM final concentration. In the case of Gal-1, lactose (competitor) was used in a concentration of 10 mM. Experiments were performed at least twice. Mean […]
LC-MS methods and parameters. HPLC/ESI-MS analysis was used to characterize the samples from the pull-down assay. LC-MS analysis was performed with a Thermo Scientific Dionex UltiMate 3000 HPLC system interfaced to an LTQ ion trap mass spectrometer (Thermo Electron Corp., San Jose, CA, USA). Samples were injected onto an Aeris Widepore XB-C18 (250 x 4.6 mm) analytical HPLC column using gradient elution 5-80 % solution B during 25 minutes. For pull-down samples, eluent composition was 0.1% acetic acid in distilled water (Solution A) and 0.1% acetic acid in acetonitrile (solution B). Mass spectra were acquired in full scan mode from 200 to 2000 m/z range. For overlapping peaks, selective reaction monitoring (SRM) was […]
MS data analysis. Thermo Xcalibur 2.2 software was used for peak identification and integration. The majority of the foldameric fragments could be resolved independently via HPLC-MS/MS measurements based on molecular weight, MS fragmentation pattern and retention time. Peaks of some foldamers with β3-hIle or β3-hLeu in position R2 could not be resolved, these were integrated and averaged. In the processing method, each sample component was associated to a chromatographic peak based on previously identified mass (m/z) and retention time (ref (2) and Table S7-10). Using ICIS peak detection algorithm, the general detection and integration criteria were: smoothing points: 5, baseline window: 80, area noise factor: 5, peak noise factor: 10. Using these processing setups, all raw data files were reprocessed together and analyzed. Errors in peak identification during the automatic processing were corrected manually.
Calculation of the discussed parameters
1. Bound fractions (FB.) were calculated from the HPLC-MS intensity loss of the LSM probes compared to the control where no protein was immobilized to the resin: […]

| Kd | SMILES |
| --- | --- |
| 447 µM | C[C@@H](CC(=O)N[C@H]1CCC[C@@H]1C(=O)N[C@H]1CCC[C@@H]1C(N)=O)NC(=O)[C@H]1CCC[C@@H]1NC(=O)[C@H]1CCC[C@@H]1NC(=O)C[C@H](CC(N)=O)NC(=O)[C@H]1CCC[C@@H]1NC(=O)[C@H]1CCC[C@@H]1N [H12 NA] |
| 400 µM | NC(=O)C[C@@H](CC(=O)N[C@H]1CCC[C@@H]1C(=O)N[C@H]1CCC[C@@H]1C(=O)N[C@@H](CC(=O)O)CC(=O)N[C@H]1CCC[C@@H]1C(=O)N[C@H]1CCC[C@@H]1C(N)=O)NC(=O)[C@H]1CCC[C@@H]1NC(=O)[C@H]1CCC[C@@H]1N [H12 ND] |
| 214 µM | CC[C@H](C)[C@@H](CC(=O)N[C@H]1CCC[C@@H]1C(=O)N[C@H]1CCC[C@@H]1C(N)=O)NC(=O)[C@H]1CCC[C@@H]1NC(=O)[C@H]1CCC[C@@H]1NC(=O)C[C@H](CC(N)=O)NC(=O)[C@H]1CCC[C@@H]1NC(=O)[C@H]1CCC[C@@H]1N [H12 NI] |
| 214 µM | CC(C)C[C@@H](CC(=O)N[C@H]1CCC[C@@H]1C(=O)N[C@H]1CCC[C@@H]1C(N)=O)NC(=O)[C@H]1CCC[C@@H]1NC(=O)[C@H]1CCC[C@@H]1NC(=O)C[C@H](CC(N)=O)NC(=O)[C@H]1CCC[C@@H]1NC(=O)[C@H]1CCC[C@@H]1N [H12 NL] |
| 378 µM | CSCC[C@@H](CC(=O)N[C@H]1CCC[C@@H]1C(=O)N[C@H]1CCC[C@@H]1C(N)=O)NC(=O)[C@H]1CCC[C@@H]1NC(=O)[C@H]1CCC[C@@H]1NC(=O)C[C@H](CC(N)=O)NC(=O)[C@H]1CCC[C@@H]1NC(=O)[C@H]1CCC[C@@H]1N [H12 NM] |
| 460 µM | CC(C)[C@@H](CC(=O)N[C@H]1CCC[C@@H]1C(=O)N[C@H]1CCC[C@@H]1C(N)=O)NC(=O)[C@H]1CCC[C@@H]1NC(=O)[C@H]1CCC[C@@H]1NC(=O)C[C@H](CC(N)=O)NC(=O)[C@H]1CCC[C@@H]1NC(=O)[C@H]1CCC[C@@H]1N [H12 NV] |
| 364 µM | NC(=O)C[C@@H](CC(=O)N[C@H]1CCC[C@@H]1C(=O)N[C@H]1CCC[C@@H]1C(=O)N[C@H](CC(=O)N[C@H]1CCC[C@@H]1C(=O)N[C@H]1CCC[C@@H]1C(N)=O)Cc1ccc(O)cc1)NC(=O)[C@H]1CCC[C@@H]1NC(=O)[C@H]1CCC[C@@H]1N [H12 NY] |
| 433 µM | NC(=O)CC[C@@H](CC(=O)N[C@H]1CCC[C@@H]1C(=O)N[C@H]1CCC[C@@H]1C(=O)N[C@@H](CC(=O)O)CC(=O)N[C@H]1CCC[C@@H]1C(=O)N[C@H]1CCC[C@@H]1C(N)=O)NC(=O)[C@H]1CCC[C@@H]1NC(=O)[C@H]1CCC[C@@H]1N [H12 QD] |
| 474 µM | NC(=O)CC[C@@H](CC(=O)N[C@H]1CCC[C@@H]1C(=O)N[C@H]1CCC[C@@H]1C(=O)N[C@@H](CCC(=O)O)CC(=O)N[C@H]1CCC[C@@H]1C(=O)N[C@H]1CCC[C@@H]1C(N)=O)NC(=O)[C@H]1CCC[C@@H]1NC(=O)[C@H]1CCC[C@@H]1N [H12 QE] |
| 263 µM | CC[C@H](C)[C@@H](CC(=O)N[C@H]1CCC[C@@H]1C(=O)N[C@H]1CCC[C@@H]1C(N)=O)NC(=O)[C@H]1CCC[C@@H]1NC(=O)[C@H]1CCC[C@@H]1NC(=O)C[C@H](CCC(N)=O)NC(=O)[C@H]1CCC[C@@H]1NC(=O)[C@H]1CCC[C@@H]1N [H12 QI] |
| 263 µM | CC(C)C[C@@H](CC(=O)N[C@H]1CCC[C@@H]1C(=O)N[C@H]1CCC[C@@H]1C(N)=O)NC(=O)[C@H]1CCC[C@@H]1NC(=O)[C@H]1CCC[C@@H]1NC(=O)C[C@H](CCC(N)=O)NC(=O)[C@H]1CCC[C@@H]1NC(=O)[C@H]1CCC[C@@H]1N [H12 QL] |
| 364 µM | CSCC[C@@H](CC(=O)N[C@H]1CCC[C@@H]1C(=O)N[C@H]1CCC[C@@H]1C(N)=O)NC(=O)[C@H]1CCC[C@@H]1NC(=O)[C@H]1CCC[C@@H]1NC(=O)C[C@H](CCC(N)=O)NC(=O)[C@H]1CCC[C@@H]1NC(=O)[C@H]1CCC[C@@H]1N [H12 QM] |
| 447 µM | C[C@@H](O)[C@@H](CC(=O)N[C@H]1CCC[C@@H]1C(=O)N[C@H]1CCC[C@@H]1C(N)=O)NC(=O)[C@H]1CCC[C@@H]1NC(=O)[C@H]1CCC[C@@H]1NC(=O)C[C@H](CCC(N)=O)NC(=O)[C@H]1CCC[C@@H]1NC(=O)[C@H]1CCC[C@@H]1N [H12 QT] |
| 403 µM | NC(=O)CC[C@@H](CC(=O)N[C@H]1CCC[C@@H]1C(=O)N[C@H]1CCC[C@@H]1C(=O)N[C@H](CC(=O)N[C@H]1CCC[C@@H]1C(=O)N[C@H]1CCC[C@@H]1C(N)=O)Cc1ccc(O)cc1)NC(=O)[C@H]1CCC[C@@H]1NC(=O)[C@H]1CCC[C@@H]1N [H12 QY] |
| 482 µM | C[C@@H](CC(=O)N[C@H]1CCC[C@@H]1C(=O)N[C@H]1CCC[C@@H]1C(N)=O)NC(=O)[C@H]1CCC[C@@H]1NC(=O)[C@H]1CCC[C@@H]1NC(=O)C[C@H](CO)NC(=O)[C@H]1CCC[C@@H]1NC(=O)[C@H]1CCC[C@@H]1N [H12 SA] |
| 441 µM | NC(=O)[C@H]1CCC[C@@H]1NC(=O)[C@H]1CCC[C@@H]1NC(=O)C[C@H](CC(=O)O)NC(=O)[C@H]1CCC[C@@H]1NC(=O)[C@H]1CCC[C@@H]1NC(=O)C[C@H](CO)NC(=O)[C@H]1CCC[C@@H]1NC(=O)[C@H]1CCC[C@@H]1N [H12 SD] |
| 340 µM | CSCC[C@@H](CC(=O)N[C@H]1CCC[C@@H]1C(=O)N[C@H]1CCC[C@@H]1C(N)=O)NC(=O)[C@H]1CCC[C@@H]1NC(=O)[C@H]1CCC[C@@H]1NC(=O)C[C@H](CO)NC(=O)[C@H]1CCC[C@@H]1NC(=O)[C@H]1CCC[C@@H]1N [H12 SM] |
| 493 µM | NC(=O)C[C@@H](CC(=O)N[C@H]1CCC[C@@H]1C(=O)N[C@H]1CCC[C@@H]1C(N)=O)NC(=O)[C@H]1CCC[C@@H]1NC(=O)[C@H]1CCC[C@@H]1NC(=O)C[C@H](CO)NC(=O)[C@H]1CCC[C@@H]1NC(=O)[C@H]1CCC[C@@H]1N [H12 SN] |
| 480 µM | NC(=O)[C@H]1CCC[C@@H]1NC(=O)[C@H]1CCC[C@@H]1NC(=O)C[C@H](CO)NC(=O)[C@H]1CCC[C@@H]1NC(=O)[C@H]1CCC[C@@H]1NC(=O)C[C@H](CO)NC(=O)[C@H]1CCC[C@@H]1NC(=O)[C@H]1CCC[C@@H]1N [H12 SS] |
| 299 µM | CC(C)[C@@H](CC(=O)N[C@H]1CCC[C@@H]1C(=O)N[C@H]1CCC[C@@H]1C(N)=O)NC(=O)[C@H]1CCC[C@@H]1NC(=O)[C@H]1CCC[C@@H]1NC(=O)C[C@H](CO)NC(=O)[C@H]1CCC[C@@H]1NC(=O)[C@H]1CCC[C@@H]1N [H12 SV] |
| 351 µM | NC(=O)[C@H]1CCC[C@@H]1NC(=O)[C@H]1CCC[C@@H]1NC(=O)C[C@H](Cc1ccc(O)cc1)NC(=O)[C@H]1CCC[C@@H]1NC(=O)[C@H]1CCC[C@@H]1NC(=O)C[C@H](CO)NC(=O)[C@H]1CCC[C@@H]1NC(=O)[C@H]1CCC[C@@H]1N [H12 SY] |
| 392 µM | C[C@@H](CC(=O)N[C@H]1CCC[C@@H]1C(=O)N[C@H]1CCC[C@@H]1C(N)=O)NC(=O)[C@H]1CCC[C@@H]1NC(=O)[C@H]1CCC[C@@H]1NC(=O)C[C@@H](NC(=O)[C@H]1CCC[C@@H]1NC(=O)[C@H]1CCC[C@@H]1N)[C@@H](C)O [H12 TA] |
| 110 µM | CC[C@H](C)[C@@H](CC(=O)N[C@H]1CCC[C@@H]1C(=O)N[C@H]1CCC[C@@H]1C(N)=O)NC(=O)[C@H]1CCC[C@@H]1NC(=O)[C@H]1CCC[C@@H]1NC(=O)C[C@@H](NC(=O)[C@H]1CCC[C@@H]1NC(=O)[C@H]1CCC[C@@H]1N)[C@@H](C)O [H12 TI] |
| 110 µM | CC(C)C[C@@H](CC(=O)N[C@H]1CCC[C@@H]1C(=O)N[C@H]1CCC[C@@H]1C(N)=O)NC(=O)[C@H]1CCC[C@@H]1NC(=O)[C@H]1CCC[C@@H]1NC(=O)C[C@@H](NC(=O)[C@H]1CCC[C@@H]1NC(=O)[C@H]1CCC[C@@H]1N)[C@@H](C)O [H12 TL] |
| 200 µM | CSCC[C@@H](CC(=O)N[C@H]1CCC[C@@H]1C(=O)N[C@H]1CCC[C@@H]1C(N)=O)NC(=O)[C@H]1CCC[C@@H]1NC(=O)[C@H]1CCC[C@@H]1NC(=O)C[C@@H](NC(=O)[C@H]1CCC[C@@H]1NC(=O)[C@H]1CCC[C@@H]1N)[C@@H](C)O [H12 TM] |
